The values below come from PubChem BioAssay AID1259411 (Chemical Carcinogenesis Research Information System (CCRIS), 2018).

The source made the active and inactive calls. How the calls were made is not given here.

The test system of the data set is rodent carcinogenicity bioassays, tumor incidence. In words: CCRIS carcinogenicity studies. The note with it: Dose: 0, Dose: 0. The gist of the method:
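NCI-built, expert-reviewed records of carcinogenicity and related test outcomes (mutagenicity, tumor promotion/inhibition) compiled from published and report sources, historical span 1985-2011, not updated.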

As to `O=C1c2ccccc2-c2ccc3c4c(ccc1c24)-c1ccccc1C3=O`, the carcinogen call is “inactive; negative” (Species: MOUSE, Strain/Sex: B6C3F1/FEMALE, Route: ORAL, 12500, 25000 PPM IN DIET, 12500, 25000 PPM IN DIET); “active; positive” (Species: MOUSE, Strain/Sex: B6C3F1/MALE, Route: ORAL, 25000, 50000 PPM IN DIET, 25000, 50000 PPM IN DIET, Tumor Site: Type of Lesion: LYMPHATIC SYSTEM: LYMPHOMA, LIVER: HEPATOCELLULAR CARCINOMA); “inactive; negative” (Species: RAT, Strain/Sex: F344/FEMALE, Route: ORAL, 3500, 7000 PPM IN DIET, 3500, 7000 PPM IN DIET); “inactive; negative” (Species: RAT, Strain/Sex: F344/MALE, Route: ORAL, 3500, 7000 PPM IN DIET, 3500, 7000 PPM IN DIET).
Regarding `Nc1ccc(-c2ccc(F)cc2)cc1`, the carcinogen call was “active; positive” (Species: MOUSE, Strain/Sex: CBA/FEMALE, Route: GAVAGE, 0.05 ML OF 1% IN ARACHIS OIL 2/WK FOR 6 MO FOR AN ESTIMATED TOTAL DOSE OF 0, 13 MG (STUDY DURATION: 119 WK), 0.05 ML OF 1% IN ARACHIS OIL 2/WK FOR 6 MO FOR AN ESTIMATED TOTAL DOSE OF 0, 13 MG (STUDY DURATION: 119 WK), Tumor Site: Type of Lesion: LIVER: HEPATOMA) and “active; positive” (Species: MOUSE, Strain/Sex: CBA/MALE, Route: GAVAGE, 0.05 ML OF 1% IN ARACHIS OIL 2/WK FOR 6 MO FOR AN ESTIMATED TOTAL DOSE OF 0, 13 MG (STUDY DURATION: 109 WK), 0.05 ML OF 1% IN ARACHIS OIL 2/WK FOR 6 MO FOR AN ESTIMATED TOTAL DOSE OF 0, 13 MG (STUDY DURATION: 109 WK), Tumor Site: Type of Lesion: LIVER: HEPATOMA).
With `CC1CN(N=O)C(=O)O1` (configuration not stated), the carcinogen call (Species: HAMSTER, Strain/Sex: SYRIAN/FEMALE, Route: GAVAGE, 14 MG/ML ((0.2 ML OF A SOLUTION IN ETHYL ACETATE/CORN OIL (1:2)) 1/WK FOR 28 WK (STUDY DURATION: LIFE SPAN), Tumor Site: Type of Lesion: FORESTOMACH: SQUAMOUS CELL CARCINOMA OR PAPILLOMA) is “active; positive”.
Take `O[C@@H]1[C@@H](O)[C@@H]2OC[C@@H](O2)[C@H]1O`: under “Species: MOUSE, Strain/Sex: CD-1/FEMALE, Route: DERMAL, 20 UMOL/0.1 ML DMSO 2/WK FOR 5 WK FOLLOWED 1 WK LATER BY 0.1 ML ACETONE 2/WK FOR 47 WK (STUDY DURATION: 52 WK)”, the carcinogen call is “inactive; negative”.
For the compound `Cc1cc2ccccc2c2cc([N+](=O)[O-])c3ccccc3c12`, the carcinogen call is “active; positive” (Species: MOUSE, Strain/Sex: SWISS/FEMALE, Route: INTRAPERITONEAL, 100 NMOL (TOTAL DOSE) ADMINISTERED 1/7, 2/7 AND 4/7 ON DAY 1, 8 AND 15 RESPECTIVELY (STUDY DURATION: 32 WK), Tumor Site: Type of Lesion: LUNG: TUMOR) and “active; positive” (Species: MOUSE, Strain/Sex: SWISS/MALE, Route: INTRAPERITONEAL, 100 NMOL (TOTAL DOSE) ADMINISTERED 1/7, 2/7 AND 4/7 ON DAY 1, 8 AND 15 RESPECTIVELY (STUDY DURATION: 32 WK), Tumor Site: Type of Lesion: LIVER: TUMOR, LUNG: TUMOR).
As for `Clc1ccc(C(c2ccccc2Cl)C(Cl)(Cl)Cl)cc1` (configuration not stated) (tested in a mixture with another compound), the carcinogen call reads like this: (Species: MOUSE, Strain/Sex: BALB/MALE,FEMALE, Route: DIET, 2, 20, 250 PPM, 2, 20, 250 PPM, Tumor Site: Type of Lesion: LIVER: HEPATOCELLULAR TUMOR) “active; positive”; (Species: MOUSE, Strain/Sex: CF-1/MALE,FEMALE, Route: DIET, 250 PPM FOR 30 WK, Tumor Site: Type of Lesion: LIVER: HEPATOMA) “active; positive”; (Species: MOUSE, Strain/Sex: CF-1, Route: DIET, 2, 10, 50, 250 PPM, 2, 10, 50, 250 PPM, Tumor Site: Type of Lesion: LIVER: HEPATOCELLULAR TUMOR) “active; positive”.
On to `CC(=O)CN(N=O)C(N)=O`, for which the carcinogen call reads like this: (Species: RAT, Strain/Sex: F344/FEMALE, Route: GAVAGE, 8 MG/ML IN CORN OIL/ETHYL ACETATE (2:1) 2/WK FOR 30 WK (STUDY DURATION: LIFETIME), Tumor Site: Type of Lesion: KIDNEY MESENCHYME: TUMOR, THYROID: FOLLICULAR TUMOR) “active; positive”; (Species: RAT, Strain/Sex: F344/MALE, Route: GAVAGE, 8 MG/ML IN CORN OIL/ETHYL ACETATE (2:1) 2/WK FOR 30 WK (STUDY DURATION: LIFETIME), Tumor Site: Type of Lesion: LUNG: TUMOR, MESOTHELIUM: TUMOR, KIDNEY MESENCHYME: TUMOR, Tumor Site: Type of Lesion: LUNG: TUMOR, MESOTHELIUM: TUMOR, KIDNEY MESENCHYME: TUMOR) “active; positive”.
Turning to `CCNC(=O)N(CC)N=O`, the carcinogen call (Species: RAT, Strain/Sex: F344/FEMALE, Route: GAVAGE, 20, 40 UMOL/WK IN CORN OIL/ETHYL ACETATE (2: 1) FOR 30 WK (LOW DOSE) OR 22.5 WK (HIGH DOSE) FOR TOTAL DOSES OF 0, 0.6, 20, 40 UMOL/WK IN CORN OIL/ETHYL ACETATE (2: 1) FOR 30 WK (LOW DOSE) OR 22.5 WK (HIGH DOSE) FOR TOTAL DOSES OF 0, 0.6, Tumor Site: Type of Lesion: MAMMARY GLAND: TUMOR) is “active; positive”; the carcinogen call (Species: RAT, Strain/Sex: F344/FEMALE, Route: INTRAVESICULAR, 3 MG 2/WK FOR 30 WK (STUDY DURATION: LIFETIME), Tumor Site: Type of Lesion: MAMMARY GLAND: TUMOR, LUNG: TUMOR, ZYMBAL GLAND: TUMOR, Tumor Site: Type of Lesion: MAMMARY GLAND: TUMOR, LUNG: TUMOR, ZYMBAL GLAND: TUMOR) is “active; positive”; the carcinogen call (Species: RAT, Strain/Sex: F344/FEMALE, Route: ORAL, 20, 40 UMOL/WK IN DRINKING WATER FOR 30 WK FOR TOTAL DOSES OF 0, 0.6, 1.2 MMOL (STUDY DURATION: LIFETIME), 20, 40 UMOL/WK IN DRINKING WATER FOR 30 WK FOR TOTAL DOSES OF 0, 0.6, 1.2 MMOL (STUDY DURATION: LIFETIME), Tumor Site: Type of Lesion: LUNG: TUMOR, MAMMARY GLAND: TUMOR, UTERUS: TUMOR, Tumor Site: Type of Lesion: LUNG: TUMOR, MAMMARY GLAND: TUMOR, UTERUS: TUMOR) is “active; positive”; the carcinogen call (Species: RAT, Strain/Sex: F344/MALE, Route: GAVAGE, 20, 40 UMOL/WK IN CORN OIL/ETHYL ACETATE (2: 1) FOR 30 WK FOR TOTAL DOSES OF 0, 0.6, 1.2 MMOL (STUDY DURATION: LIFETI, 20, 40 UMOL/WK IN CORN OIL/ETHYL ACETATE (2: 1) FOR 30 WK FOR TOTAL DOSES OF 0, 0.6, 1.2 MMOL (STUDY DURATION: LIFETI, Tumor Site: Type of Lesion: LUNG: TUMOR, TESTIS: MESOTHELIOMA, NERVOUS SYSTEM: TUMOR, ZYMBAL GLAND: TUMOR, COLON: TUMOR, Tumor Site: Type of Lesion: LUNG: TUMOR, TESTIS: MESOTHELIOMA, NERVOUS SYSTEM: TUMOR, ZYMBAL GLAND: TUMOR, COLON: TUMOR) was “active; positive”; the carcinogen call (Species: RAT, Strain/Sex: F344/MALE, Route: ORAL, 20, 40 UMOL/WK IN DRINKING WATER FOR 30 WK FOR TOTAL DOSES OF 0, 0.6, 1.2 MMOL (STUDY DURATION: LIFETIME), 20, 40 UMOL/WK IN DRINKING WATER FOR 30 WK FOR TOTAL DOSES OF 0, 0.6, 1.2 MMOL (STUDY DURATION: LIFETIME), Tumor Site: Type of Lesion: LUNG: TUMOR, TESTIS: MESOTHELIOMA, COLON: TUMOR, SKIN: TUMOR, Tumor Site: Type of Lesion: LUNG: TUMOR, TESTIS: MESOTHELIOMA, COLON: TUMOR, SKIN: TUMOR) was “active; positive”.
With `Cn1cc(OCC(O)CNC(C)(C)C)c2ccccc2c1=O` (configuration not stated), the carcinogen call (Species: MOUSE, Strain/Sex: CD-1/FEMALE, Route: GAVAGE, 3, 10, 30 MG/KG/D FOR 80 WK IN WATER (STUDY DURATION: 80 WK), 3, 10, 30 MG/KG/D FOR 80 WK IN WATER (STUDY DURATION: 80 WK)) was “inactive; negative” and the carcinogen call (Species: MOUSE, Strain/Sex: CD-1/MALE, Route: GAVAGE, 3, 10, 30 MG/KG/D FOR 80 WK IN WATER (STUDY DURATION: 80 WK), 3, 10, 30 MG/KG/D FOR 80 WK IN WATER (STUDY DURATION: 80 WK)) is “inactive; negative”.
